# In patent US20250154169A1, “COMPOUNDS AND METHODS FOR MODULATING SPLICING” (REMIX THERAPEUTICS INC., priority 2021, published 2025):
# Read-outs that look alike come from different tables or passages of the source.
# How the values were obtained:
# Type in all cases: cell-based, human
# HTT mRNA [1] = assay: Splicing RT-qPCR assay, HTT canonical (CJ) and alternative (AJ) junction mRNA; details: Homo sapiens, A673 or K562 cells, 24 hours compound treatment; for IC50: 24 h, read-out: HTT CJ (IC50, decrease in canonical junction mRNA); for AC50: read-out: HTT AJ (AC50, increase in alternative junction mRNA)
# In short: (§1)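 Canonical (CJ) and alternative-exon (AJ) junction mRNAs quantified by one-step RT-qPCR in cell lysates, normalized to housekeeping PPIA for A673 and GAPDH or GUSB for K562. Cells were exposed 24 h at 37 °C to 11-point 3-fold compound series from 10 uM final, with DMSO at or below 0.25%.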
# MYB mRNA = assay: Splicing RT-qPCR assay, MYB canonical (CJ) and alternative (AJ) junction mRNA; details: Homo sapiens; for AC50: read-out: MYB AJ (AC50, increase in alternative junction mRNA)
# In short: as §1
# SMN2 mRNA = assay: Splicing RT-qPCR gene panel, SMN2 canonical junction (CJ) mRNA; details: Homo sapiens, Tables 4A/4B, read-out: SMN2 (IC50, decrease in CJ mRNA, gene panel)
# In short: (§2)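 First, A673 cells adhered 24 h before dosing, while K562 cells were plated and dosed directly. Both lines were then exposed to compound for 24 h at 37 °C, 5% CO2, top concentration 10 uM. Finally, lysates underwent RT-qPCR of the canonical junction, with ΔΔCt-based relative quantification.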
# Target C mRNA = assay: Splicing RT-qPCR gene panel, Target C canonical junction (CJ) mRNA; details: Homo sapiens, Tables 4A/4B, read-out: Target C (IC50, decrease in CJ mRNA, gene panel)
# In short: as §2
# HTT mRNA [2] = assay: Splicing RT-qPCR gene panel, HTT canonical junction (CJ) mRNA; details: Homo sapiens, Tables 4A/4B, read-out: HTT (IC50, decrease in CJ mRNA, gene panel)
# In short: as §2
# [3] = 24 h, A673 or K562 cells, 24 hours compound treatment, RT-qPCR
# [4] = 24 h, A673 or K562 cells, 24 hours compound treatment, RT-qPCR, read-out: MYB CJ (IC50, decrease in canonical junction mRNA)
# [5] = Tables 4A/4B, canonical junction qPCR panel, read-out: MYB (IC50, decrease in CJ mRNA, gene panel)
Compound,IC50 (HTT mRNA [1]) [nM],IC50 (MYB mRNA; [4]) [nM],IC50 (MYB mRNA; [5]) [nM],IC50 (SMN2 mRNA) [nM],IC50 (Target C mRNA) [nM],IC50 (HTT mRNA [2]) [nM],AC50 (HTT mRNA [1]) [nM],AC50 (MYB mRNA; [3]) [nM]
"CCn1cc2c(N3CCC(NC)C3)ccc(C(=O)Nc3cc(F)c4nc(C)cn4c3)c2n1 (stereo not shown) [Compound 374, 2-ethyl-N-{8-fluoro-2-methylimidazo[1,2-a]pyridin-6-yl}-4-[3-(methylamino)pyrrolidin-1-yl]indazole-7-carboxamide]",> 10000,< 100,< 100,< 100,> 10000,> 10000,> 10000,< 100
"CCn1cc2c(N3CCC(N(C)C)C3)ccc(C(=O)Nc3cc(F)c4nc(C)cn4c3)c2n1 (stereo not shown) [Compound 375, 4-[3-(dimethylamino)pyrrolidin-1-yl]-2-ethyl-N-{8-fluoro-2-methylimidazo[1,2-a]pyridin-6-yl}indazole-7-carboxamide]",100 to 1000,100 to 1000,100 to 1000,< 100,100 to 1000,100 to 1000,100 to 1000,100 to 1000
"CCn1cc2c(N3CCC(NC4CC4)CC3)ccc(C(=O)Nc3cc(F)c4nc(C)cn4c3)c2n1 [Compound 376, 4-[4-(cyclopropylamino)piperidin-1-yl]-2-ethyl-N-{8-fluoro-2-methylimidazo[1,2-a]pyridin-6-yl}indazole-7-carboxamide]",100 to 1000,100 to 1000,< 100,< 100,> 10000,1000 to 10000,1000 to 10000,100 to 1000

# More lines, main results first:
IC50 (HTT mRNA [1]) [nM],IC50 (MYB mRNA; [4]) [nM],IC50 (MYB mRNA; [5]) [nM],IC50 (SMN2 mRNA) [nM],IC50 (Target C mRNA) [nM],IC50 (HTT mRNA [2]) [nM],Compound,AC50 (HTT mRNA [1]) [nM],AC50 (MYB mRNA; [3]) [nM]
100 to 1000,< 100,< 100,< 100,1000 to 10000,100 to 1000,"Cc1cn2cc(NC(=O)c3ccc(N4CCC(NCCO)CC4)c4cn(C)nc34)cc(F)c2n1 [Compound 369, N-{8-fluoro-2-methylimidazo[1,2-a]pyridin-6-yl}-4-{4-[(2-hydroxyethyl)amino]piperidin-1-yl}-2-methylindazole-7-carboxamide]",100 to 1000,< 100
> 10000,100 to 1000,100 to 1000,100 to 1000,> 10000,> 10000,"Cc1cn2cc(NC(=O)c3ccc(N4CCC(N)(C(F)(F)F)CC4)c4cn(C)nc34)cc(F)c2n1 [Compound 370, 4-[4-amino-4-(trifluoromethyl)piperidin-1-yl]-N-{8-fluoro-2-methylimidazo[1,2-a]pyridin-6-yl}-2-methylindazole-7-carboxamide]",> 10000,1000 to 10000
100 to 1000,< 100,< 100,< 100,> 10000,> 10000,"Cc1cn2cc(NC(=O)c3ccc(N4CC[C@@H](NC5CC5)C4)c4cn(C)nc34)cc(F)c2n1 [Compound 371, 4-[(3R)-3-(cyclopropylamino)pyrrolidin-1-yl]-N-{8-fluoro-2-methylimidazo[1,2-a]pyridin-6-yl}-2-methylindazole-7-carboxamide]",100 to 1000,< 100
1000 to 10000,< 100,< 100,< 100,> 10000,> 10000,"Cc1cn2cc(NC(=O)c3ccc(N4CC[C@H](NC5CC5)C4)c4cn(C)nc34)cc(F)c2n1 [Compound 372, 4-[(3S)-3-(cyclopropylamino)pyrrolidin-1-yl]-N-{8-fluoro-2-methylimidazo[1,2-a]pyridin-6-yl}-2-methylindazole-7-carboxamide]",1000 to 10000,< 100
1000 to 10000,< 100,< 100,< 100,> 10000,1000 to 10000,"Cc1cn2cc(NC(=O)c3ccc(N4CCC(NC5(CF)CC5)C4)c4cn(C)nc34)cc(F)c2n1 (stereo not shown) [Compound 373, N-{8-fluoro-2-methylimidazo[1,2-a]pyridin-6-yl}-4-(3-{[1-(fluoromethyl)cyclopropyl]amino}pyrrolidin-1-yl)-2-methylindazole-7-carboxamide]",1000 to 10000,< 100
